The values that follow come from patent US8613914B2, “Peptidomimetic sulfamide compounds and antiviral uses thereof” (Novartis AG, priority 2009, dated 2013).

The target in the test is HCV NS3-4A serine protease (full-length NS3-4A protein) (Hepatitis C virus genotype 1a (isolate 1) (HCV), UniProt P26664). As to the kind of experiment: HCV NS3-4A protease assay. In kind it is biochemical, HCV genotype 1a. The note with it: strain HCV-1, fluorogenic peptide substrate, read-out: Protease assay Ex. 12 IC50. Here is the method: The inhibitory activity of certain compounds of Table A against HCV NS3-4A serine protease is determined in a homogenous assay using the full-length NS3-4A protein (genotype 1a, strain HCV-1) and a commercially available internally-quenched fluorogenic peptide substrate as described by Taliani, M., et al. 1996 Anal. Biochem. 240:60-67, which is incorporated by reference in its entirety.
HCV NS3-4A serine protease (full-length NS3-4A protein), sequence (P26664 1027-1657): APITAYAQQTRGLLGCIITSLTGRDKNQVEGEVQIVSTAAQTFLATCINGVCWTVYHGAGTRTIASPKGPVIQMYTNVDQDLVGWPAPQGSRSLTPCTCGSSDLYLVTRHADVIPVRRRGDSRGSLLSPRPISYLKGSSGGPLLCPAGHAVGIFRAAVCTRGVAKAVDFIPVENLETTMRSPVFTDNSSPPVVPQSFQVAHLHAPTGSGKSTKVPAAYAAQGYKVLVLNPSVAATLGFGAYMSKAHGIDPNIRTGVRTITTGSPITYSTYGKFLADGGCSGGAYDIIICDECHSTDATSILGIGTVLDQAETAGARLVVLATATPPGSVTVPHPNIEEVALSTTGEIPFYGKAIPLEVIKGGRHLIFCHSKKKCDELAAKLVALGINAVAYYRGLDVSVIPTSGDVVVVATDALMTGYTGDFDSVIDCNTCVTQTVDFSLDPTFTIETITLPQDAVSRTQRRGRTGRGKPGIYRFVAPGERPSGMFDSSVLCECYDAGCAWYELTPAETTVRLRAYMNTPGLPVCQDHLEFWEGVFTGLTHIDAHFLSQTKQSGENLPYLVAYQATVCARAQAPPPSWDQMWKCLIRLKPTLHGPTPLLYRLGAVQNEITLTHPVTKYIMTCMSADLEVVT
HCV NS3-4A serine protease (full-length NS3-4A protein), sequence (P26664 1658-1711 partner): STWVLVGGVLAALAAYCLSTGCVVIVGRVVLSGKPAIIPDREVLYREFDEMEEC

For orientation: IC50 means the point on the concentration scale where inhibition reaches its midpoint. In the case of `C=C[C@@H]1C[C@]1(NC(=O)[C@@H]1C[C@@]2(CN1C(=O)[C@@H](NC(=O)[C@@H](NC(=O)C(C)(C)N1CCCCC1)C1CCCCC1)C(C)(C)C)C(C)(C)C21CCC1)C(=O)NS(=O)(=O)N1CCCC1` [Compound 25, (5R,8S)-7-[(2S)-2-({(2S)-2-cyclohexyl-2-[(2-methyl-2-piperidin-1-ylpropanoyl)amino]acetyl}amino)-3,3-dimethylbutanoyl]-10,10-dimethyl-N-{(1R,2S)-1-[(pyrrolidin-1-ylsulfonyl)carbamoyl]-2-vinylcyclopropyl}-7-azadispiro[3.0.4.1]decane-8-carboxamide], the half-inhibitory concentration (IC50) amounted to 8 nM.

As for `C=C[C@@H]1C[C@]1(NC(=O)[C@@H]1C[C@@]2(CN1C(=O)[C@@H](NC(=O)[C@@H](NC(=O)c1cccc(N(C)C)n1)C1CCCCC1)C(C)(C)C)C(C)(C)C21CCC1)C(=O)NS(=O)(=O)N1CCCC1` [Compound 69, (5R,8S)-7-[(2S)-2-{[(2S)-2-cyclohexyl-2-({[6-(dimethylamino)pyridin-2-yl]carbonyl}amino)acetyl]amino}-3,3-dimethylbutanoyl]-10,10-dimethyl-N-{(1R,2S)-1-[(pyrrolidin-1-ylsulfonyl)carbamoyl]-2-vinylcyclopropyl}-7-azadispiro[3.0.4.1]decane-8-carboxamide], the IC50 stood at 50 nM.

For the molecule `C=C[C@@H]1C[C@]1(NC(=O)[C@@H]1C[C@@]2(CN1C(=O)[C@@H](NC(=O)[C@@H](NC(=O)[C@@H]1CCCCN1C1CCCC1)C1CCCCC1)C(C)(C)C)C(C)(C)C21CCC1)C(=O)NS(=O)(=O)N1CCCC1` [Compound 32, (5R,8S)-7-[(2S)-2-{[(2S)-2-cyclohexyl-2-({[(2S)-1-cyclopentylpiperidin-2-yl]carbonyl}amino)acetyl]amino}-3,3-dimethylbutanoyl]-10,10-dimethyl-N-{(1R,2S)-1-[(pyrrolidin-1-ylsulfonyl)carbamoyl]-2-vinylcyclopropyl}-7-azadispiro[3.0.4.1]decane-8-carboxamide], the 50% inhibitory concentration (IC50) was found to be 1 nM.

As for `C=C[C@@H]1C[C@]1(NC(=O)[C@@H]1C[C@@]2(CN1C(=O)[C@@H](NC(=O)[C@@H](NC(=O)[C@@H]1CCN1C(C)C)C(C)(C)C)C(C)(C)C)C(C)(C)C21CCC1)C(=O)NS(=O)(=O)N1CCCC1` [Compound 12, (5R,8S)-7-[(2S)-2-{[(2S)-2-({[(2S)-1-isopropylazetidin-2-yl]carbonyl}amino)-3,3-dimethylbutanoyl]amino}-3,3-dimethylbutanoyl]-10,10-dimethyl-N-{(1R,2S)-1-[(pyrrolidin-1-ylsulfonyl)carbamoyl]-2-vinylcyclopropyl}-7-azadispiro[3.0.4.1]decane-8-carboxamide], the IC50 was 40 nM.

As to `CC[C@@H]1C[C@]1(NC(=O)[C@@H]1C[C@@]2(CN1C(=O)[C@@H](NC(=O)[C@@H](NC(=O)[C@@H]1CCCN1C(C)C)C1CCCCC1)C(C)(C)C)C(C)(C)C21CCC1)C(=O)NS(=O)(=O)N1CCCC1` [Compound 116, (5R,8S)-7-[(2S)-2-{[(2S)-2-cyclohexyl-2-({[(2S)-1-isopropylpyrrolidin-2-yl]carbonyl}amino)acetyl]amino}-3,3-dimethylbutanoyl]-N-{(1R,2R)-2-ethyl-1-[(pyrrolidin-1-ylsulfonyl)carbamoyl]cyclopropyl}-10,10-dimethyl-7-azadispiro[3.0.4.1]decane-8-carboxamide], the IC50 was found to be 4.5 nM.

Consider `C=C[C@@H]1C[C@]1(NC(=O)[C@@H]1C[C@@]2(CN1C(=O)[C@@H](NC(=O)[C@@H](NC(=O)[C@@H]1CCCCN1C(C)C)C1CCCCC1)C(C)(C)C)C(C)(C)C21CCC1)C(=O)NS(=O)(=O)N1CC[C@@H](F)C1` [Compound 45, (5R,8S)-7-[(2S)-2-{[(2S)-2-cyclohexyl-2-({[(2S)-1-isopropylpiperidin-2-yl]carbonyl}amino)acetyl]amino}-3,3-dimethylbutanoyl]-N-[(1R,2S)-1-({[(3R)-3-fluoropyrrolidin-1-yl]sulfonyl}carbamoyl)-2-vinylcyclopropyl]-10,10-dimethyl-7-azadispiro[3.0.4.1]decane-8-carboxamide], for which the 50% inhibitory concentration (IC50) was found to be 1 nM.

For the molecule `C=C[C@@H]1C[C@]1(NC(=O)[C@@H]1C[C@@]2(CN1C(=O)[C@@H](NC(=O)[C@@H](NC(=O)[C@@H]1CCCCN1CCF)C1CCCCC1)C1CCOCC1)C(C)(C)C21CCC1)C(=O)NS(=O)(=O)N1CCCC1` [Compound 75, (5R,8S)-7-[(2S)-2-{[(2S)-2-cyclohexyl-2-({[(2S)-1-(2-fluoroethyl)piperidin-2-yl]carbonyl}amino)acetyl]amino}-2-(tetrahydro-2H-pyran-4-yl)acetyl]-10,10-dimethyl-N-{(1R,2S)-1-[(pyrrolidin-1-ylsulfonyl)carbamoyl]-2-vinylcyclopropyl}-7-azadispiro[3.0.4.1]decane-8-carboxamide], the IC50 came to 30 nM.

For `C=C[C@@H]1C[C@]1(NC(=O)[C@@H]1C[C@@]2(CN1C(=O)[C@@H](NC(=O)[C@@H](NC(=O)C1CN(C(C)C)C1)C1CCCCC1)C(C)(C)C)C(C)(C)C21CCC1)C(=O)NS(=O)(=O)N1CCCC1` [Compound 19, (5R,8S)-7-[(2S)-2-{[(2S)-2-cyclohexyl-2-{[(1-isopropylazetidin-3-yl)carbonyl]amino}acetyl]amino}-3,3-dimethylbutanoyl]-10,10-dimethyl-N-{(1R,2S)-1-[(pyrrolidin-1-ylsulfonyl)carbamoyl]-2-vinylcyclopropyl}-7-azadispiro[3.0.4.1]decane-8-carboxamide], the half-inhibitory concentration (IC50) is 55 nM.

On to `[2H]C([2H])([2H])C([2H])([2H])N1CCCC[C@H]1C(=O)NC(C(=O)N[C@H](C(=O)N1C[C@]2(C[C@H]1C(=O)N[C@]1(C(=O)NS(=O)(=O)N3CCCC3)C[C@H]1C=C)C(C)(C)C21CCC1)C(C)(C)C)C1CCCCC1` (stereo partly drawn) [Compound 139, (5R,8S)-7-[(2S)-2-{[(2S)-2-cyclohexyl-2-({[(2S)-1-d5-ethylpiperidin-2-yl]carbonyl}amino)acetyl]amino}-3,3-dimethylbutanoyl]-10,10-dimethyl-N-{(1R,2S)-1-[(pyrrolidin-1-ylsulfonyl)carbamoyl]-2-vinylcyclopropyl}-7-azadispiro[3.0.4.1]decane-8-carboxamide-d5], for which the 50% inhibitory concentration (IC50) came to 3.5 nM.

On to `C=C[C@@H]1C[C@]1(NC(=O)[C@@H]1C[C@@]2(CN1C(=O)[C@@H](NC(=O)[C@@H](NC(=O)[C@H]1CCCCN1C(C)C)C1CCCCC1)C(C)(C)C)C(C)(C)C21CCC1)C(=O)NS(=O)(=O)N1CCCC1` [Compound 47, (5R,8S)-7-[(2S)-2-{[(2S)-2-cyclohexyl-2-({[(2R)-1-isopropylpiperidin-2-yl]carbonyl}amino)acetyl]amino}-3,3-dimethylbutanoyl]-10,10-dimethyl-N-{(1R,2S)-1-[(pyrrolidin-1-ylsulfonyl)carbamoyl]-2-vinylcyclopropyl}-7-azadispiro[3.0.4.1]decane-8-carboxamide], for which the IC50 turned out to be 4.8 nM.

`CC[C@@H]1C[C@]1(NC(=O)[C@@H]1C[C@@]2(CN1C(=O)[C@@H](NC(=O)[C@@H](NC(=O)[C@@H]1CCCN1C(C)C)C1CCCCC1)C(C)(C)C)C(C)(C)C21CCC1)C(=O)NS(=O)(=O)N(CC)CC` [Compound 117, (5R,8S)-7-[(2S)-2-{[(2S)-2-cyclohexyl-2-({[(2S)-1-isopropylpyrrolidin-2-yl]carbonyl}amino)acetyl]amino}-3,3-dimethylbutanoyl]-N-[(1R,2R)-1-{[(diethylamino)sulfonyl]carbamoyl}-2-ethylcyclopropyl]-10,10-dimethyl-7-azadispiro[3.0.4.1]decane-8-carboxamide]: the IC50 is 5.5 nM.

Take `C=C[C@@H]1C[C@]1(NC(=O)[C@@H]1C[C@@]2(CN1C(=O)[C@@H](NC(=O)[C@@H](NC(=O)[C@H]1CCCN1C(C)C)C(C)(C)C)C(C)(C)C)C(C)(C)C21CCC1)C(=O)NS(=O)(=O)N1CCCC1` [Compound 21, (5R,8S)-7-[(2S)-2-{[(2S)-2-({[(2R)-1-isopropylpyrrolidin-2-yl]carbonyl}amino)-3,3-dimethylbutanoyl]amino}-3,3-dimethylbutanoyl]-10,10-dimethyl-N-{(1R,2S)-1-[(pyrrolidin-1-ylsulfonyl)carbamoyl]-2-vinylcyclopropyl}-7-azadispiro[3.0.4.1]decane-8-carboxamide]: the half-inhibitory concentration (IC50) turned out to be 35 nM.

As to `C=C[C@@H]1C[C@]1(NC(=O)[C@@H]1C[C@@]2(CN1C(=O)[C@@H](NC(=O)[C@@H](NC(=O)[C@@H]1CCCN1CC)C1CCCCC1)C1(C)CCOCC1)C(C)(C)C21CCC1)C(=O)NS(=O)(=O)N(CC)CC` [Compound 154, (5R,8S)-7-[(2S)-2-{[(2S)-2-cyclohexyl-2-({[(2S)-1-ethylpyrrolidin-2-yl]carbonyl}amino)acetyl]amino}-2-(4-methyltetrahydro-2H-pyran-4-yl)acetyl]-N-[(1R,2S)-1-{[(diethylamino)sulfonyl]carbamoyl}-2-vinylcyclopropyl]-10,10-dimethyl-7-azadispiro[3.0.4.1]decane-8-carboxamide], the half-maximal inhibitory concentration (IC50) was found to be 2.8 nM.

Take `CCCN(C)S(=O)(=O)NC(=O)[C@@]1(NC(=O)[C@@H]2C[C@@]3(CN2C(=O)[C@@H](NC(=O)[C@@H](NC(=O)[C@@H]2CCCCN2C(C)C)C2CCCCC2)C(C)(C)C)C(C)(C)C32CCC2)C[C@H]1CC` [Compound 142, (5R,8S)-7-[(2S)-2-{[(2S)-2-cyclohexyl-2-({[(2S)-1-isopropylpiperidin-2-yl]carbonyl}amino)acetyl]amino}-3,3-dimethylbutanoyl]-N-[(1R,2R)-2-ethyl-1-({[methyl(propyl)amino]sulfonyl}carbamoyl)cyclopropyl]-10,10-dimethyl-7-azadispiro[3.0.4.1]decane-8-carboxamide]: the IC50 was 10 nM.
